According to patent US6177592A, “Compounds” (priority 1997, dated 2001):

Columns and labels:
[1] = tested on: heat shock protein of 70 kDa (HSP70); test: Induction of heat shock protein of 70 kDa in HL-60; format: cell-based, human; parameters: key: -: no induction was noted; ±: the induction was slight; indicates degree of intensity of induction and the more the numbers of "+", the more the intensity of induction; ++: the more the numbers of "+", the more the intensity of induction; +++: the more the numbers of "+", the more the intensity of induction; conditions: 5 μM CM
Molt-3 cells = test: Growth of Molt-3 cells (MTT); format: cell-based, human; conditions: 24 hours
Protocol: (§1) (1) Jurkat cells (ATCC TIB-152) and Molt-3 cells (ATCC CRL-1552) which were human T cell leukemia cell stain were incubated in an RPMI 1640 medium (manufactured by Gibco BRL) containing 10% fetal calf serum (FCS, manufactured by Bio Whittaker) at 37° C. in the presence of 5% CO2 and the cells were then suspended in the above-mentioned medium containing 0, 5, 10 or 20 μM of GM to make the cell numbers 5×10^5 cells/ml followed by incubating for 24 hours. Cell growth was measured by an MTT method [Mosmann, et al.: J. Immunol. Methods, volume 65, pages 55-63 (1983)] wherein degree of cell growth was determined by the absorbance at 560 nm.

Meth A cells = test: Meth A subcutaneous tumor growth in BALB/c mice; format: in vivo, mouse; conditions: 5 mg/kg/day s.c., five days; after two weeks
Protocol: GM was diluted with a physiological saline solution to a predetermined concentration and subjected to the following tests.
(1) Meth A cells (2×10^6 cells/mouse) were subcutaneously injected to abdomen of female BALB/c mice (body weight: about 20 g) of eight weeks age. After that, GM (5 mg/kg/day) was subcutaneously injected for consecutive five days to the same site. On the other hand, a physiological saline solution was subcutaneously injected to the control group by the same manner. After two weeks, the cancer tissues generated in abdomen of the mice were excised and their weight were measured.

antigen-specific IgE = test: Antigen-specific IgE production (48-hour rat PCA); format: in vivo, rat (Wistar); conditions: for IgE Titer: three days, control 64
Protocol: Yale rats of Wistar strain of five weeks age (one group consisting of five rats) (Nippon SLC) were sensitized by an intraperitoneal injection of 100 μl of 0.01% solution of egg white albumin (Sigma) in an aqueous physiological saline solution and 100 μl of Alum (trade name: Imject Alum; Pierce) and, after 14 days, blood was collected from abdominal artery.
The collected blood was centrifuged (at 2000 rpm for five minutes), plasma was separated and the amount of antigen-specific IgE was measured by a 48-hour rat passive cutaneous anaphylaxis (PCA) reaction.
Thus, serum was diluted with a physiological saline solution in a successively doubling manner ranging from 1/4 to 1/64 and each 0.1 ml thereof was subcutaneously injected to hair-clipped back of male rats of Wistar strain of seven weeks age. After 48 hours from the subcutaneous injection, 1 ml of a mixture of 0.05% egg white albumin and 0.5% Evans Blue (manufactured by Nacalai Tesque) was injected from tail vein. After 30 minutes from the injection from the tail vein, rats were subjected to decapitation and to exanguinated death, blue spots appeared on the back were observed, the spots with a diameter of 5 mm or more were judged to be positive and the highest dilution was adopted as an IgE titer.
In the GM-administered groups, 3 mg/kg or 30 mg/kg of GM was intraperitoneally administered once daily for three days from the antigen-sensitized day while, in the control group, distilled water was intraperitoneally administered by the same manner.

NIH 3T3 = test: Colony formation of NIH 3T3 cells; format: cell-based; conditions: 5 μM GM, nine days; control 91.7 ± 11.9
Protocol: NIH 3T3 cells were incubated at 37° C. under the condition of 5% CO2 in a Dulbecco-modified Eagle's medium containing 10% of calf serum.
(2) NIH 3T3 cells, the cells strains into which control vector was introduced and the cell strains into which E7 was introduced were made to grow to an extent of 50-70% confluence in a Dulbecco-modified Eagle's medium containing 10% of calf serum using a 100 mm-tissue culture plate and washed with PBS and the cells were peeled off with a 0.25% trypsin-EDTA solution and suspended in 5 ml of Dulbecco-modified Eagle's medium containing 10% of calf serum.
A part of the suspension was taken out and cell density was counted by a Neubauer's hemocytometer. Based upon the resulting data, it was diluted with a Dulbecco-modified Eagle's medium containing 10% of calf serum and planted on a tissue culture plate having a diameter of 60 mm to make 200 cells/plate and incubation was started in 3 ml of the medium. After 24 hours from the initiation of the incubation, GM was added thereto to make its concentration 5 μM. After additional 24 hours, the medium was exchanged with a fresh one and GM was added thereto to make its concentration 5 μM.
After that, the medium was exchanged with a fresh one every two to three days followed by adding GM thereto to make its concentration 5 μM. […]

CEM-SS cells = test: Survival rate of CEM-SS cells; format: cell-based; conditions: one day
Protocol: GM (0, 4, 8 or 16 μM) was added to 2×10^5 cell/ml of CEM-SS cells (ATCC CCL-119) and to CEM-SS cells infected with HIV-1IIIB (wherein not less than 90% of the CEM-SS cells were infected with the HIV-1IIIB; hereinafter, referred to as CEM-3B) incubation was conducted for one day, viable cell numbers and dead cell numbers were counted and survival cell rate was calculated.

tumor necrosis factor-α = test: TNF-α in serum of LPS endotoxin-shock mice; format: in vivo, mouse (CDF1); conditions: for TNF in serum (Mean ± SE): n=5, control 2.32 ± 0.15
Protocol: (1) LPS (lipopolysaccharide manufactured by Sigma) was intraperitoneally injected (10 μg/mouse) to female CDF1 mice of eight weeks age (purchased from Nippon SLC at seven weeks age with bodyweight of 20 g followed by subjecting a preliminary breeding for one week at our end) and endotoxin-shock models were prepared. GM was orally administered at the dose of 100 and 1000 mg/kg at thirty minutes before administration of LPS. After one hour from the administration of LPS, blood was collected from the mice, serum was separated and amount of the tumor necrosis factor-α in the serum was measured by a commercially available ELISA kit (manufactured by Endogen).

Jurkat cells = test: Growth of Jurkat cells (MTT); format: cell-based, human; conditions: 24 hours
Protocol: as §1

[2] = Homo sapiens, 10 μM, read-out: inhibition of cell growth
[3] = Homo sapiens, 20 μM, read-out: inhibition of cell growth

Row | Compound | Induction of Heat Shock Protein [1] | effect in the growth of cells (Molt-3 cells; 5 μM or less) | inhibition at 10 µM (Molt-3 cells; [2]) [%] | inhibition at 20 µM (Molt-3 cells; [3]) [%] | inhibiting action to the growth of cancer (weight of cancer tissues) (Meth A cells) | IgE Titer (antigen-specific IgE; 3 mg/kg/day i.p.) | IgE Titer (antigen-specific IgE; 30 mg/kg/day i.p.) | inhibiting activity to IgE production (in words) (antigen-specific IgE; rat, in vivo) | Numbers of Colonies (Mean Value ± SD) (NIH 3T3) | survival rate of cells (CEM-SS cells; 16 μM) | survival rate of cells (CEM-SS cells; 4 or 8 μM) | TNF in serum (Mean ± SE) (tumor necrosis factor-α; 100 mg/kg oral) [ng/mL] | inhibition of production of tumor necrosis factor (in words) (tumor necrosis factor-α; 1000 mg/kg oral) | TNF in serum (Mean ± SE) (tumor necrosis factor-α; 1000 mg/kg oral) [ng/mL] | effect in the growth of cells (Jurkat cells; 5 μM or less) | inhibition at 10 µM (Jurkat cells; [2]) [%] | inhibition at 20 µM (Jurkat cells; [3]) [%]
1 | N[C@@H](CSC1C=C(O)C(=O)C1)C(=O)O (some centres unmarked) [CM] | - |  |  |  |  |  |  |  |  |  |  |  |  |  |  |  | 
2 | N[C@@H](CCC(=O)N[C@@H](CSC1C=C(O)C(=O)C1)C(=O)NCC(=O)O)C(=O)O (some centres unmarked) [GM, 2-hydroxy-4-glutathion-S-yl-2-cyclopenten-1-one] |  | no significant effect in the growth of cells | ~50 | ≥ 75 | significant inhibiting action to the growth of cancer | 32 | 8 | inhibited by administration of GM in a dose-dependent manner | 79.0 ± 2.6 | the survival rate of CEM-SS cells decreased as well | survival rate did not decrease in CEM-SS cells | 2.22 ± 0.26 | significantly inhibited | 1.16 ± 0.26 | no significant effect in the growth of cells | ~50 | ≥ 75
